Assay results from patent US8278482B2, “Antimicrobial N-chlorinated compositions” (priority 2008, dated 2012).
Read-outs that look alike come from different tables or passages of the source.

Columns and labels:
Format in all cases: cell-based
[1] = test system: Escherichia coli (ATCC 25922); test: Antimicrobial activity (MBC), E. coli ATCC 25922
Description: (§1) To determine antimicrobial activity, Escherichia coli (ATCC 25922), Staphylococcus aureus (ATCC 29213), Pseudomonas aeruginosa (ATCC 27853), and Candida albicans (ATCC 10231) were used in primary screening. In addition, Escherichia coli (MCC 80392), Staphylococcus aureus (MCC 91731), Pseudomonas aeruginosa (MCC 4438), and Candida albicans (MCC 50319), provided by Alcon Laboratories, Fort Worth, Tex., were used. The microbial cultures were diluted in sterile saline pH 4 to prepare inocula. Test compounds were titrated by stepwise two-fold dilutions in sterile saline pH 4. A total of 1.0×10^5 to 1.0×10^6 Colony Forming Units (CFU)/mL microbe was added to each tube, mixed by gentle vortexing, and then incubated at room temperature for 1 h. Microbial plating on Petri dishes (Tryptic Soy agar or Saboraud's Dextrose agar) was performed immediately after the designated exposure after neutralization of the test article dilutions in Dey-Engley Broth. Plates were incubated at 37° C., and the numbers of microbes were counted by direct colony count to quantitate the surviving microbes as CFU/mL. Positive growth controls were made with sterile 0.9% saline. Compounds were dissolved in unbuffered isotonic saline (SAL) or phosphate buffered saline (PBS) at pH 4 or pH 7 (using HCl and/or NaOH as needed). All compounds were tested three times. The results are tabulated to show the comparison of antimicrobial effectiveness range of the compounds.
(§2) Data shown are the Minimum Bactericidal Concentration (MBC) or Minimum Fungicidal Concentration (MFC) (≧99.9% kill) in μg/mL.

[2] = test system: Staphylococcus aureus (ATCC 29213); test: Antimicrobial activity (MBC), S. aureus ATCC 29213
Description: as §1, §2

[3] = test system: Candida albicans (ATCC 10231); test: Antimicrobial activity (MFC), C. albicans ATCC 10231
Description: as §1, §2

[4] = test system: Escherichia coli (MCC 80392); test: Antimicrobial activity (MBC), E. coli MCC 80392; conditions: 1 h exposure at room temperature
Description: as §1, §2

[5] = test system: Staphylococcus aureus (MCC 91731); test: Antimicrobial activity (MBC), S. aureus MCC 91731; conditions: 1 h exposure at room temperature
Description: as §1, §2

[6] = test system: Candida albicans (MCC 50319); test: Antimicrobial activity (MFC), C. albicans MCC 50319; conditions: 1 h exposure at room temperature
Description: as §1, §2

[7] = test system: mouse fibroblast cells (ATCC CCL-1, L929); test: Cytotoxicity, WST-8 colorimetric assay; conditions: 60 min exposure
Description: Cytotoxicity was assessed by a colorimetric assay system using the Dojindo™ cell counting kit containing 2-(2-methoxy-4-nitrophenyl)-3-(4-nitrophenyl)-5-(2,4-disulfophenyl)-2H-tetrazolium, monosodium salt (WST-8). In this assay, the WST-8 reagent was bioreduced by cellular dehydrogenases to a formazan product that is highly soluble in tissue culture medium.
In a standard assay, mouse fibroblast cells (ATCC CCL-1, L929), were cultured in Minimum Essential Medium, α-medium supplemented with 10% heat inactivated fetal bovine serum, L-glutamine, penicillin and streptomycin. Cells were trypsinized and counted under the microscope and seeded at 1.5×10^4 total cells per 100 μL per well of a flat-bottom 96-well plate in order to achieve ˜80% confluence after overnight incubation at 37° C. On the day of the assay, the tissue culture medium was removed and replaced with 30 μL of fresh medium.
Test articles were prepared as 2-fold serial dilutions and 170 μL of each dilution is added into each of 4-wells (total volume per well=200 μL). The test plate was then returned to the 37° C. incubator for 60 min. Immediately after the exposed time, test article from each well was replaced with 200 μL of fresh media. Plates were incubated at 37° C. for 18-20 hours. The following day growth medium was replaced with 100 μL/well of fresh medium containing 10 μL WST-8 reagent. Cells were incubated under growth conditions (5% CO2 at 37° C. humidified incubator), protected from light, until color development was achieved (usually 1-4 hours). Absorbance was read at 450 nm with reference wavelength at 750 nm using Molecular Device SpectraMax M5 plate reader. Untreated or vehicle only treated cells receiving WST-8 reagent served as positive cell proliferation controls.
The absorbance A450/750 from each well of untreated cells and from each well within the dilution series was measured. […] Next, a non-linear regression (curve fit) analysis was performed on all the absorbance data measured from the dilution series, including the absorbance data obtained from wells of the untreated control cells. For each dilution within the dilution series, an average A450/750 was calculated from the four replicate wells.

[8] = test system: Pseudomonas aeruginosa (MCC 4438); test: Antimicrobial activity (MBC), P. aeruginosa MCC 4438; conditions: 1 h exposure at room temperature
Description: as §1, §2

[9] = ATCC25922, E. coli ATCC 25922, pH 4 (Sal), 1 h exposure at room temperature, read-out: Minimum Bactericidal Concentration (MBC) (≧99.9% kill)
[10] = ATCC29213, S. aureus ATCC 29213, pH 4 (Sal), 1 h exposure at room temperature, read-out: Minimum Bactericidal Concentration (MBC) (≧99.9% kill)
[11] = ATCC10231, C. albicans ATCC 10231, pH 4 (Sal), 1 h exposure at room temperature, read-out: Minimum Fungicidal Concentration (MFC) (≧99.9% kill)

Row | SMILES | MBC ([1]; ATCC25922, 1 h, pH 4, read-out: Minimum Bactericidal Concentration (MBC) (≧99.9% kill)) | MBC ([2]; ATCC29213, 1 h, pH 4, read-out: Minimum Bactericidal Concentration (MBC) (≧99.9% kill)) | MFC ([3]; ATCC10231, 1 h, pH 4, read-out: Minimum Fungicidal Concentration (MFC) (≧99.9% kill)) | Minimum Bactericidal Concentration (MBC) (≧99.9% kill) ([4]; pH 4 (Sal)) | Minimum Bactericidal Concentration (MBC) (≧99.9% kill) ([4]; pH 7 (PBS)) | Minimum Bactericidal Concentration (MBC) (≧99.9% kill) ([5]; pH 4 (Sal)) | Minimum Bactericidal Concentration (MBC) (≧99.9% kill) ([5]; pH 7 (PBS)) | Minimum Fungicidal Concentration (MFC) (≧99.9% kill) ([6]; pH 4 (Sal)) | Minimum Fungicidal Concentration (MFC) (≧99.9% kill) ([6]; pH 7 (PBS)) | CT50 (concentration that results in survival of 50% of the cells) ([7]; pH 4 (Sal)) | CT50 (concentration that results in survival of 50% of the cells) ([7]; pH 7 (PBS)) | MBC [1, 9] | MBC [2, 10] | MFC [3, 11] | Minimum Bactericidal Concentration (MBC) (≧99.9% kill) ([8]; pH 4 (Sal)) | Minimum Bactericidal Concentration (MBC) (≧99.9% kill) ([8]; pH 7 (PBS)) | MBC ([1]; ATCC25922, E. coli ATCC 25922, pH 7 (PBS), 1 h exposure at room temperature, read-out: Minimum Bactericidal Concentration (MBC) (≧99.9% kill)) | MBC ([2]; ATCC29213, S. aureus ATCC 29213, pH 7 (PBS), 1 h exposure at room temperature, read-out: Minimum Bactericidal Concentration (MBC) (≧99.9% kill)) | MFC ([3]; ATCC10231, C. albicans ATCC 10231, pH 7 (PBS), 1 h exposure at room temperature, read-out: Minimum Fungicidal Concentration (MFC) (≧99.9% kill)) | CT50 (concentration that results in survival of 50% of the cells) ([7]; pH 4 (Acetate))
1 | CC(C)(C[N+](C)(C)C)N(Cl)Cl [Compound 21-30, 2-(Dichloroamino)-N,N,N-2-tetramethylpropan-1-ammonium chloride] | 16 µg/mL | 8 µg/mL | 128 µg/mL | 16 µg/mL | 512 µg/mL | 8 µg/mL | 512 µg/mL | 256 µg/mL | >2048 µg/mL | 0.5 mM | 0.5 mM |  |  |  |  |  |  |  |  | 
2 | CC[N+](C)(CC)CCC(C)(C)N(Cl)Cl.[Cl-] [Compound 21-114, 3-(Dichloroamino)-N,N-diethyl-N-3-dimethylbutan-1-ammonium chloride] |  |  |  | 2 µg/mL | 512 µg/mL | 4 µg/mL | 512 µg/mL |  |  | 1.3 mM |  | 8 µg/mL | 2 µg/mL | 16 µg/mL | 4 µg/mL | 1024 µg/mL |  |  |  | 
3 | CC(C)(CC[N+](C)(C)C)N(Cl)Cl.[Cl-] [Compound 21-32, 3-(Dichloroamino)-N,N,N-3-tetramethylbutan-1-ammonium chloride] |  |  |  | 8 µg/mL | 256 µg/mL | 1 µg/mL | 256 µg/mL | 32 µg/mL | >1024 µg/mL | 1.7 mM | 1.8 mM | 2 µg/mL | 2 µg/mL | 64 µg/mL |  | 512 µg/mL | 128 µg/mL | 512 µg/mL | > 4100 µg/mL | 
4 | CC(C)(CC[N+](C)(C)CCC[N+](C)(C)C)N(Cl)Cl.[Cl-].[Cl-] [Compound 21-128, N^1-(3-(Dichloroamino)-3-methylbutyl)-N^1,N^1,N^3,N^3,N^3-pentamethylpropane-1,3-diammonmium chloride] |  |  |  |  |  |  |  |  |  |  |  | 16 µg/mL | 4 µg/mL | 128 µg/mL |  |  |  |  |  | 1.3 mM
5 | CC(C)(CC[N+]1(C)CCCCCC1)N(Cl)Cl.[Cl-] [Compound 21-118, 1-(3-(Dichloroamino)-3-methylbutyl)-1-methylazepanium chloride] |  |  |  |  |  |  |  |  |  | 0.9 mM |  | 4 µg/mL | 4 µg/mL | 16 µg/mL |  |  |  |  |  | 
6 | CCCC[N+](C)(C)CCC(C)(C)N(Cl)Cl.[Cl-] [Compound 21-124, N-Butyl-3-(dichloroamino)-N,N,3-trimethylbutan-1-ammonium chloride] |  |  |  |  |  |  |  |  |  |  |  | 8 µg/mL | 2 µg/mL | 64 µg/mL |  |  |  |  |  | 1.0 mM
